US20230091047A1 (priority 2019, published 2023)
Like-named read-outs stand apart in the source and are kept apart here.

What was measured:
[1] = test system: HBV (HepG2.117 cell line, inducibly HBV producing); assay: Anti-HBV activity: intracellular HBV DNA by real-time PCR in HepG2.117 cells after 3 days of treatment; type: cell-based, hepatitis B virus; conditions: HepG2.117 cells, 3 days of treatment, intracellular HBV DNA by real-time PCR, mean value, read-out: EC50 (μM, mean value)
In short: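 HepG2.117 cells replicate HBV under Tet-off control, without doxycycline. After induction of replication, cells were treated with serially diluted compound for 3 days, and intracellular HBV DNA was then quantified by real-time PCR with an HBV-specific primer set and probe.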

in vitro = type: cell-based; conditions: human, HepG2 or HepG2.117 cells, 3-days incubation (unmarked values), ATPlite; mean value
In short: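 Luminescent ATP quantitation served as the viability endpoint following a 3- or 4-day incubation with test compounds.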

[2] = Hepatitis B virus, HepG2.117, 72 h

Structure (SMILES)	EC50 [1, 2]	CC50 at 3 days (in vitro)	EC50 [1]
COc1ccc(CNc2nc3c(c(=O)[nH]2)CCN(C(=O)c2ccc4occc4c2)C3)cc1 [Compound C81, 7-(1-benzofuran-5-carbonyl)-2-{[(4-methoxyphenyl)methyl]amino}-5,6,7,8-tetrahydropyrido[3,4-d]pyrimidin-4(3H)-one]	4.49 µM	> 50 µM	
COc1ccc(CNc2nc3c(c(=O)[nH]2)CCN(C(=O)c2ccc(C#N)c(Cl)c2)C3)cc1 [Compound C82, 2-chloro-4-[2-{[(4-methoxyphenyl)methyl]amino}-4-oxo-4,5,6,8-tetrahydropyrido[3,4-d]pyrimidine-7(3H)-carbonyl]benzonitrile]	23.4 µM	> 50 µM	
COc1ccc(CNc2nc3c(c(=O)n2C2CCCN(S(C)(=O)=O)C2)CCN(C(=O)c2ccc(Cl)c(Cl)c2)C3)cc1 (stereo not shown) [Compound C83, 7-(3,4-dichlorobenzoyl)-3-[1-(methanesulfonyl)piperidin-3-yl]-2-{[(4-methoxyphenyl)methyl]amino}-5,6,7,8-tetrahydropyrido[3,4-d]pyrimidin-4(3H)-one]	1.44 µM	> 50 µM	
COc1ccc(CNc2nc3c(c(=O)n2-c2ccc(S(C)(=O)=O)cc2)CCN(C(=O)c2ccc(Cl)c(Cl)c2)C3)cc1 [Compound C84, 7-(3,4-dichlorobenzoyl)-3-[4-(methanesulfonyl)phenyl]-2-{[(4-methoxyphenyl)methyl]amino}-5,6,7,8-tetrahydropyrido[3,4-d]pyrimidin-4(3H)-one]	0.57 µM	> 50 µM	
CC(C)Nc1nc2c(c(=O)n1-c1ccc(S(C)(=O)=O)cc1)CCN(C(=O)c1ccc(Cl)c(Cl)c1)C2 [Compound C85, 7-(3,4-dichlorobenzoyl)-3-[4-(methanesulfonyl)phenyl]-2-[(propan-2-yl)amino]-5,6,7,8-tetrahydropyrido[3,4-d]pyrimidin-4(3H)-one]	0.85 µM	> 50 µM	
COc1ccccc1-n1c(N[C@@H](C)C(F)(F)F)nc2c(c1=O)CCN(C(=O)c1ccc(Cl)c(Cl)c1)C2 [Compound C86, 7-(3,4-dichlorobenzoyl)-3-(2-methoxyphenyl)-2-{[(2S)-1,1,1-trifluoropropan-2-yl]amino}-5,6,7,8-tetrahydropyrido[3,4-d]pyrimidin-4(3H)-one]	1.44 µM	25.2 µM	
COc1ccc(CNc2nc3c(c(=O)n2-c2cc(OC)cc(S(C)(=O)=O)c2)CCN(C(=O)c2ccc(Cl)c(Cl)c2)C3)cc1 [Compound C87, 7-(3,4-dichlorobenzoyl)-3-[3-(methanesulfonyl)-5-methoxyphenyl]-2-{[(4-methoxyphenyl)methyl]amino}-5,6,7,8-tetrahydropyrido[3,4-d]pyrimidin-4(3H)-one]	1.55 µM	> 50 µM	
COc1cc(-n2c(NC(C)C)nc3c(c2=O)CCN(C(=O)c2ccc(Cl)c(Cl)c2)C3)cc(S(C)(=O)=O)c1 [Compound C88, 7-(3,4-dichlorobenzoyl)-3-[3-(methanesulfonyl)-5-methoxyphenyl]-2-[(propan-2-yl)amino]-5,6,7,8-tetrahydropyrido[3,4-d]pyrimidin-4(3H)-one]	4.99 µM	> 50 µM	
C=CCNc1nc2c(c(=O)n1CC=C)CCN(C(=O)c1ccc(Cl)c(Cl)c1)C2 [Compound C89, 7-(3,4-dichlorobenzoyl)-3-(prop-2-en-1-yl)-2-[(prop-2-en-1-yl)amino]-5,6,7,8-tetrahydropyrido[3,4-d]pyrimidin-4(3H)-one]	8.76 µM	> 50 µM	
COc1ccc(CN(CCCO)c2nc3c(c(=O)[nH]2)CCN(C(=O)c2ccc(Cl)c(Cl)c2)C3)cc1 [Compound C90, 7-(3,4-dichlorobenzoyl)-2-{(3-hydroxypropyl)[(4-methoxyphenyl)methyl]amino}-5,6,7,8-tetrahydropyrido[3,4-d]pyrimidin-4(3H)-one]	8 µM	21.2 µM	
COc1ccc(CN(CCO)c2nc3c(c(=O)[nH]2)CCN(C(=O)c2ccc(Cl)c(Cl)c2)C3)cc1 [Compound C91, 7-(3,4-dichlorobenzoyl)-2-{(2-hydroxyethyl)[(4-methoxyphenyl)methyl]amino}-5,6,7,8-tetrahydropyrido[3,4-d]pyrimidin-4(3H)-one]	8.92 µM	22.2 µM	
COc1ccc(C(CCO)Nc2nc3c(c(=O)[nH]2)CCN(C(=O)c2ccc(Cl)c(Cl)c2)C3)cc1 (stereo not shown) [Compound C92, 7-(3,4-dichlorobenzoyl)-2-{[3-hydroxy-1-(4-methoxyphenyl)propyl]amino}-5,6,7,8-tetrahydropyrido[3,4-d]pyrimidin-4(3H)-one]	7.09 µM	24.8 µM	
COc1ccc(CNc2nc3c(c(=O)n2C2CCOCC2)CCN(C(=O)c2ccc(Cl)c(Cl)c2)C3)cc1 [Compound C93, 7-(3,4-dichlorobenzoyl)-2-{[(4-methoxyphenyl)methyl]amino}-3-(oxan-4-yl)-5,6,7,8-tetrahydropyrido[3,4-d]pyrimidin-4(3H)-one]	1.73 µM	32 µM	
COc1ccc(CNc2nc3c(c(=O)[nH]2)CC(c2ccc(F)cc2)N(C(=O)c2ccc(Cl)c(Cl)c2)C3)cc1 (stereo not shown) [Compound C94, 7-(3,4-dichlorobenzoyl)-6-(4-fluorophenyl)-2-{[(4-methoxyphenyl)methyl]amino}-5,6,7,8-tetrahydropyrido[3,4-d]pyrimidin-4(3H)-one]	0.77 µM	> 50 µM	
COc1ccccc1-n1c(N)nc2c(c1=O)CC(C)N(C(=O)c1ccc(Cl)c(Cl)c1)C2 (stereo not shown) [Compound C95, 2-amino-7-(3,4-dichlorobenzoyl)-3-(2-methoxyphenyl)-6-methyl-5,6,7,8-tetrahydropyrido[3,4-d]pyrimidin-4(3H)-one]	1.02 µM	> 50 µM	
COc1ccc(CNc2nc3c(c(=O)n2-c2cccnc2C)CCN(C(=O)c2ccc(Cl)c(Cl)c2)C3)cc1 [Compound C96, 7-(3,4-dichlorobenzoyl)-2-{[(4-methoxyphenyl)methyl]amino}-3-(2-methylpyridin-3-yl)-5,6,7,8-tetrahydropyrido[3,4-d]pyrimidin-4(3H)-one]	0.65 µM	24.3 µM	
CC(C)N(CCO)c1nc2c(c(=O)[nH]1)CCN(C(=O)c1ccc(Cl)c(Cl)c1)C2 [Compound C97, 7-(3,4-dichlorobenzoyl)-2-[(2-hydroxyethyl)(propan-2-yl)amino]-5,6,7,8-tetrahydropyrido[3,4-d]pyrimidin-4(3H)-one]	3.22 µM	> 50 µM	
O=C(c1ccc(Cl)c(Cl)c1)N1CCc2c(nc(NC(CO)CO)[nH]c2=O)C1 [Compound C98, 7-(3,4-dichlorobenzoyl)-2-[(1,3-dihydroxypropan-2-yl)amino]-5,6,7,8-tetrahydropyrido[3,4-d]pyrimidin-4(3H)-one]	36.5 µM	> 50 µM	
Cc1ncccc1-n1c(NC(C)C)nc2c(c1=O)CCN(C(=O)c1ccc(Cl)c(Cl)c1)C2 [Compound C99, 7-(3,4-dichlorobenzoyl)-3-(2-methylpyridin-3-yl)-2-[(propan-2-yl)amino]-5,6,7,8-tetrahydropyrido[3,4-d]pyrimidin-4(3H)-one]	2.05 µM	28.3 µM	
CC(C)Nc1nc2c(c(=O)n1-c1ccc(S(C)(=O)=O)cc1)CC(C)N(C(=O)c1ccc(Cl)c(Cl)c1)C2 (stereo not shown) [Compound C100, 7-(3,4-dichlorobenzoyl)-3-[4-(methanesulfonyl)phenyl]-6-methyl-2-[(propan-2-yl)amino]-5,6,7,8-tetrahydropyrido[3,4-d]pyrimidin-4(3H)-one]	0.51 µM	> 25 µM	
CC(C)Nc1nc2c(c(=O)n1-c1ccc(S(C)(=O)=O)cc1)C[C@@H](C)N(C(=O)c1ccc(Cl)c(Cl)c1)C2 [Compound C100A, (6R)-7-(3,4-dichlorobenzoyl)-3-[4-(methanesulfonyl)phenyl]-6-methyl-2-[(propan-2-yl)amino]-5,6,7,8-tetrahydropyrido[3,4-d]pyrimidin-4(3H)-one]		> 50 µM	0.27 µM
CC(C)Nc1nc2c(c(=O)n1-c1ccc(S(C)(=O)=O)cc1)C[C@H](C)N(C(=O)c1ccc(Cl)c(Cl)c1)C2 [Compound C100B, (6S)-7-(3,4-dichlorobenzoyl)-3-[4-(methanesulfonyl)phenyl]-6-methyl-2-[(propan-2-yl)amino]-5,6,7,8-tetrahydropyrido[3,4-d]pyrimidin-4(3H)-one]	10.1 µM	> 50 µM	
COc1ccc(CNc2nc3c(c(=O)n2-c2ccc(S(C)(=O)=O)nc2)CCN(C(=O)c2ccc(Cl)c(Cl)c2)C3)cc1 [Compound C102, 7-(3,4-dichlorobenzoyl)-3-[6-(methanesulfonyl)pyridin-3-yl]-2-{[(4-methoxyphenyl)methyl]amino}-5,6,7,8-tetrahydropyrido[3,4-d]pyrimidin-4(3H)-one]	0.39 µM	> 50 µM	
COc1ccc(CNc2nc3c(c(=O)[nH]2)CCN(C(=O)c2ccc(Cl)c(C#N)c2)C3)cc1 [Compound C103, 2-chloro-5-[2-{[(4-methoxyphenyl)methyl]amino}-4-oxo-4,5,6,8-tetrahydropyrido[3,4-d]pyrimidine-7(3H)-carbonyl]benzonitrile]	18.3 µM	> 50 µM	
COc1ccc(CNc2nc3c(c(=O)[nH]2)CCN(C(=O)c2ccc(Br)c(C)c2)C3)cc1 [Compound C104, 7-(4-bromo-3-methylbenzoyl)-2-{[(4-methoxyphenyl)methyl]amino}-5,6,7,8-tetrahydropyrido[3,4-d]pyrimidin-4(3H)-one]	1.8 µM	24.1 µM	
COc1ccc(CNc2nc3c(c(=O)[nH]2)CCN(C(=O)c2ccc(Br)c(C#N)c2)C3)cc1 [Compound C105, 2-bromo-5-[2-{[(4-methoxyphenyl)methyl]amino}-4-oxo-4,5,6,8-tetrahydropyrido[3,4-d]pyrimidine-7(3H)-carbonyl]benzonitrile]	6.81 µM	> 50 µM	
